Legend:
Assay in all cases: relative viability (nuclei count vs DMSO), 5 days (fraction); higher = more cells survive
NCI-H2228 = system: NCI-H2228
Procedure, shortened: (§1)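 Each reported value is a median over duplicate plates. It expresses relative viability: treated-well nuclei count divided by vehicle-well nuclei count. Lung cancer cell lines in 1536-well plates were dosed by pin tool a day after seeding, alone with one drug or with a fixed anchor-drug dose plus five library-drug doses (not always all listed) in √10 steps, and nuclei were counted after 5 days.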

H3255 = system: H3255
Procedure, shortened: as §1

NCI-H1355 = system: NCI-H1355
Procedure, shortened: as §1

HCC-15 = system: HCC-15
Procedure, shortened: as §1

HCC-827 = system: HCC-827
Procedure, shortened: as §1

NCI-H1563 = system: NCI-H1563
Procedure, shortened: as §1

NCI-H2405 = system: NCI-H2405
Procedure, shortened: as §1

COR-L23 = system: COR-L23
Procedure, shortened: as §1

NCI-H322M = system: NCI-H322M
Procedure, shortened: as §1

EKVX = system: EKVX
Procedure, shortened: as §1

PC-14 = system: PC-14
Procedure, shortened: as §1

ABC-1 = system: ABC-1
Procedure, shortened: as §1

NCI-H1734 = system: NCI-H1734
Procedure, shortened: as §1

NCI-H1650 = system: NCI-H1650
Procedure, shortened: as §1

NCI-H520 = system: NCI-H520
Procedure, shortened: as §1

CAL-12T = system: CAL-12T
Procedure, shortened: as §1

RERF-LC-KJ = system: RERF-LC-KJ
Procedure, shortened: as §1

NCI-H1437 = system: NCI-H1437
Procedure, shortened: as §1

PC-3 [JPC-3] = system: PC-3 [JPC-3]
Procedure, shortened: as §1

SW 1573 = system: SW 1573
Procedure, shortened: as §1

NCI-H661 = system: NCI-H661
Procedure, shortened: as §1

What does the source list for `C=C1C(=O)O[C@@H](CCCCCCCC)[C@@H]1C(=O)O` [C-75] + CC(C)C[C@H](NC(=O)[C@H](Cc1ccccc1)NC(=O)c1cnccn1)B(O)O [Bortezomib] (partner 0.002 µM)?
relative viability (NCI-H2228; first compound 0.08 µM): 0.836; relative viability (NCI-H2228; first compound 0.253 µM): 1.43; relative viability (NCI-H2228; first compound 0.8 µM): 0.8; relative viability (NCI-H2228; first compound 2.53 µM): 0.729; relative viability (NCI-H2228; first compound 8 µM): 0.746; relative viability (H3255; first compound 0.08 µM): 0.841; relative viability (H3255; first compound 0.253 µM): 0.811; relative viability (H3255; first compound 0.8 µM): 0.715; relative viability (H3255; first compound 2.53 µM): 0.799; relative viability (H3255; first compound 8 µM): 0.8; relative viability (NCI-H1355; first compound 0.08 µM): 1.24; relative viability (NCI-H1355; first compound 0.253 µM): 1.28; relative viability (NCI-H1355; first compound 0.8 µM): 1.07; relative viability (NCI-H1355; first compound 2.53 µM): 1.1; relative viability (NCI-H1355; first compound 8 µM): 1.21; relative viability (HCC-15; first compound 0.08 µM): 1.04; relative viability (HCC-15; first compound 0.253 µM): 1.05; relative viability (HCC-15; first compound 0.8 µM): 0.944; relative viability (HCC-15; first compound 2.53 µM): 0.943; relative viability (HCC-15; first compound 8 µM): 1.01; relative viability (HCC-827; first compound 0.08 µM): 1.09; relative viability (HCC-827; first compound 0.253 µM): 0.995; relative viability (HCC-827; first compound 0.8 µM): 0.972; relative viability (HCC-827; first compound 2.53 µM): 1.01; relative viability (HCC-827; first compound 8 µM): 1.08; relative viability (NCI-H1563; first compound 0.08 µM): 0.855; relative viability (NCI-H1563; first compound 0.253 µM): 1.1; relative viability (NCI-H1563; first compound 0.8 µM): 0.963; relative viability (NCI-H1563; first compound 2.53 µM): 0.763; relative viability (NCI-H1563; first compound 8 µM): 0.906; relative viability (NCI-H2405; first compound 0.08 µM): 0.995; relative viability (NCI-H2405; first compound 0.253 µM): 0.773; relative viability (NCI-H2405; first compound 0.8 µM): 0.974; relative viability (NCI-H2405; first compound 2.53 µM): 0.673; relative viability (NCI-H2405; first compound 8 µM): 0.971; relative viability (COR-L23; first compound 0.08 µM): 0.953; relative viability (COR-L23; first compound 0.253 µM): 1.05; relative viability (COR-L23; first compound 0.8 µM): 0.946; relative viability (COR-L23; first compound 2.53 µM): 0.698; relative viability (COR-L23; first compound 8 µM): 0.818; relative viability (NCI-H322M; first compound 0.08 µM): 1.36; relative viability (NCI-H322M; first compound 0.253 µM): 1.45; relative viability (NCI-H322M; first compound 0.8 µM): 1.21; relative viability (NCI-H322M; first compound 2.53 µM): 1.09; relative viability (NCI-H322M; first compound 8 µM): 1.25; relative viability (EKVX; first compound 0.08 µM): 0.996; relative viability (EKVX; first compound 0.253 µM): 1.09; relative viability (EKVX; first compound 0.8 µM): 1.17; relative viability (EKVX; first compound 2.53 µM): 0.947; relative viability (EKVX; first compound 8 µM): 1.01; relative viability (PC-14; first compound 0.08 µM): 0.853; relative viability (PC-14; first compound 0.253 µM): 0.969; relative viability (PC-14; first compound 0.8 µM): 0.94; relative viability (PC-14; first compound 2.53 µM): 0.726; relative viability (PC-14; first compound 8 µM): 0.965; relative viability (ABC-1; first compound 0.08 µM): 0.295; relative viability (ABC-1; first compound 0.253 µM): 0.314; relative viability (ABC-1; first compound 0.8 µM): 0.373; relative viability (ABC-1; first compound 2.53 µM): 0.178; relative viability (ABC-1; first compound 8 µM): 0.234; relative viability (NCI-H1734; first compound 0.08 µM): 1.13; relative viability (NCI-H1734; first compound 0.253 µM): 0.934; relative viability (NCI-H1734; first compound 0.8 µM): 0.886; relative viability (NCI-H1734; first compound 2.53 µM): 0.812; relative viability (NCI-H1734; first compound 8 µM): 0.785; relative viability (NCI-H1650; first compound 0.08 µM): 0.223; relative viability (NCI-H1650; first compound 0.253 µM): 0.212; relative viability (NCI-H1650; first compound 0.8 µM): 0.198; relative viability (NCI-H1650; first compound 2.53 µM): 0.158; relative viability (NCI-H1650; first compound 8 µM): 0.187; relative viability (NCI-H520; first compound 0.08 µM): 0.442; relative viability (NCI-H520; first compound 0.253 µM): 0.425; relative viability (NCI-H520; first compound 0.8 µM): 0.578; relative viability (NCI-H520; first compound 2.53 µM): 0.337; relative viability (NCI-H520; first compound 8 µM): 0.58; relative viability (CAL-12T; first compound 0.08 µM): 0.949; relative viability (CAL-12T; first compound 0.253 µM): 0.967; relative viability (CAL-12T; first compound 0.8 µM): 0.758; relative viability (CAL-12T; first compound 2.53 µM): 0.946; relative viability (CAL-12T; first compound 8 µM): 0.928; relative viability (RERF-LC-KJ; first compound 0.08 µM): 1.17; relative viability (RERF-LC-KJ; first compound 0.253 µM): 1.09; relative viability (RERF-LC-KJ; first compound 0.8 µM): 1.21; relative viability (RERF-LC-KJ; first compound 2.53 µM): 1.09; relative viability (RERF-LC-KJ; first compound 8 µM): 1.31; relative viability (NCI-H1437; first compound 0.08 µM): 0.572; relative viability (NCI-H1437; first compound 0.253 µM): 0.546; relative viability (NCI-H1437; first compound 0.8 µM): 0.483; relative viability (NCI-H1437; first compound 2.53 µM): 0.546; relative viability (NCI-H1437; first compound 8 µM): 0.455; relative viability (PC-3 [JPC-3]; first compound 0.08 µM): 0.826; relative viability (PC-3 [JPC-3]; first compound 0.253 µM): 0.839; relative viability (PC-3 [JPC-3]; first compound 0.8 µM): 0.826; relative viability (PC-3 [JPC-3]; first compound 2.53 µM): 0.581; relative viability (PC-3 [JPC-3]; first compound 8 µM): 0.836; relative viability (SW 1573; first compound 0.08 µM): 1.05; relative viability (SW 1573; first compound 0.253 µM): 0.949; relative viability (SW 1573; first compound 0.8 µM): 1.03; relative viability (SW 1573; first compound 2.53 µM): 1.07; relative viability (SW 1573; first compound 8 µM): 0.912; relative viability (NCI-H661; first compound 0.08 µM): 0.696; relative viability (NCI-H661; first compound 0.253 µM): 0.873; relative viability (NCI-H661; first compound 0.8 µM): 0.731; relative viability (NCI-H661; first compound 2.53 µM): 0.973; relative viability (NCI-H661; first compound 8 µM): 0.655

From the supplement of paper PMC10307832
